Data reported in patent US20170027973A1, “MODULARION OF INVARIANT NATURAL KILLER T CELLS IN THE TREATMENT OF SEPSIS” (LONDON HEALTH SCIENCES CENTRE RESEARCH INC., priority 2014, published 2017).

How the values were obtained:
Assay type in all cases: in vivo, mouse
iNKT cells = assay: Flow cytometric detection of iNKT and T cells in spleen and liver of septic B6 mice; conditions: 24 hours
Procedure: FIG. 10: Effect of glycolipid agonists on cytokine expression in naïve B6 mice, and on iNKT cells in septic B6 mice. (a) Naïve B6 mice were injected i.p. with 4 μg OCH or KRN7000 or C20:2, and bled at 2, 12, and 24 hours post-injection. Serum samples were assayed for IL-4 and IFN-γ by enzyme-linked immunosorbent assay (ELISA). […] Vehicle-treated mice had cytokine levels below limits of detection. (b) B6 mice were given an intraperitoneal injection of fecal slurry (500 μL of a 90 mg/mL solution) to induce IAS and concomitantly treated with 4 μg of vehicle, OCH, or KRN7000. After 24 hours, mice were sacrificed, and cell suspensions from the liver and spleen were stained for the flow cytometric detection of CD1d tetramer+ TCRβ+iNKT cells.
To obtain hepatic lymphoid mononuclear cells (MNCs), mice were euthanized, and livers were flushed with sterile PBS before they were harvested and pressed through a 40-μm nylon mesh. The resulting homogenate was washed in cold PBS, resuspended in a 33.75% Percoll PLUS solution (GE Healthcare Bio-Sciences) and spun at 700×g for 12 min at room temperature. The pelleted cells were then treated with ACK lysis buffer to remove erythrocytes and washed in cold PBS prior to staining. To obtain omental lymphoid MNCs, the spleen, pancreas, and omentum were removed en-bloc and suspended in ice-cold PBS. The omenta floated above the spleen-pancreas complex and were removed and processed similar to the liver. Spleens were processed with a tissue homogenizer, and the resulting homogenate was washed in cold PBS. The pelleted cells were treated with ACK lysis buffer for 4 minutes to remove erythrocytes, and washed in cold PBS prior to staining.
Mouse hepatic, splenic, and omental cells (1×106), and human PBMCs (1×106) were washed with cold FACS buffer [PBS+2% fetal bovine serum (FBS)+0.1% sodium azide] and incubated with 5 μg/ml anti-mouse CD16/CD32 mAb (clone 2•4G2, Fc-block, eBiosciences) for 20 min on ice before staining with fluorescent monoclonal antibodies (mAbs) diluted in FACS buffer at 4° C. for 30-40 min. […]

[1] = test system: B6 mice with intra-abdominal sepsis (IAS); assay: Murine intra-abdominal sepsis (IAS) model: survival and murine sepsis score (MSS); conditions: septic B6 mice; for median survival: 4 μg i.p. single dose, vehicle 24 hours; for murine sepsis score (MSS) after 24 h: compared to vehicle treatment
Procedure: Stool from the cecum of euthanized naïve B6 mice was expressed through an enterotomy, homogenized, and suspended in 0.9% normal saline (NS) to produce a fecal slurry at a final concentration of 90 mg/mL, for use in experiments on the same day. Mice were injected intraperitoneally with 500 μL fecal slurry or 0.9% normal saline (sham group). The mice were monitored and scored by two independent investigators—one of whom was blinded to the treatment—every 2-3 hours for the first 12 hours, and then every 1-2 hours thereafter. A murine sepsis score (MSS) was assigned to each mouse based on activity, eye movement, response to exogenous stimuli, breathing rate and pattern, and degree of piloerection (Shrum et al. BMC Research Notes 2014, 7:233). The MSS is a reliable and robust scoring system that has excellent inter-rater reliability (intra-class coefficient=0.96), high internal consistency (Cronbach α=0.92), and correlates with levels of certain pro-inflammatory cytokines such as IFN-γ and IL-1β during the experimental timeline (Shrum et al. BMC Research Notes 2014, 7:233). Mice were euthanized at 24 hours, or earlier if they were deemed to be in significant distress based on our scoring model. Euthanasia was carried out as described above. At the time of sacrifice, intra-cardiac blood was drawn into 1.5 mL micro-centrifuge tubes (BD Biosciences) and centrifuged for serum at 1000×g for 30 minutes at 4° C.
Lyophilized OCH was generously provided by the National Institutes of Health (NIH) Tetramer Core Facility (Emory University, Atlanta, Ga.). Each vial containing 0.2 mg of OCH was solubilized in a vehicle solution containing 1 mL of sterile distilled water, 0.5% Tween 20, 56 mg of sucrose and 7.5 mg of histidine, and stored as aliquots at 4° C. until use. KRN7000 (α-GalCer, C26:0/C18:0) was purchased from Funakoshi Co. Ltd. (Tokyo, Japan), solubilized at 1 mg/ml in dimethylsulphoxide (DMSO), and stored as aliquots at −20° C. until use (29); the control vehicle was 2% DMSO in phosphate-buffered saline (PBS). C20:2 was synthesized and used as previously published (30, 31). For in vivo experiments, mice were injected intraperitoneally (i.p.) with a single dose of glycolipid (4 μg/dose) (30) within twenty minutes after induction of IAS.

[2] = test system: bacterial counts in blood and multiple organs; assay: Microbial growth (CFU) from tissue homogenates and peripheral blood of septic mice; conditions: septic B6 mice; compared between vehicle, OCH and KRN7000 treatments
Procedure: Whole hearts, lungs (left and right), kidneys (left and right), spleen, and liver were removed from euthanized mice and homogenized in 5 mL of PBS. Homogenates were serially diluted 1:10 in PBS and plated on bovine heart infusion (BHI) agar. Plates were grown aerobically at 37° C. overnight to determine tissue colony-forming units (CFU). Intra-cardiac blood (10 μL) was collected in a heparinized syringe from the right ventricle, serially diluted 1:10 with PBS, and plated on BHIagar to determine blood CFU.

inflammatory cytokines = assay: Multiplex cytokine quantification in sera and spleens of septic B6 mice
Procedure: FIG. 5: Cytokine levels in the sera and spleens of septic B6 mice. […] Concentrations of iNKT cell-specific cytokines are shown from sera (b) and spleen homogenates (c) of septic mice treated with vehicle, OCH, or KRN7000 (n=4-8 per group). Concentrations of cytokines are shown in pg/mL. *p<0.05, **p<0.01, ***p<0.001 by one-way ANOVA with post-hoc Tukey's multiple comparison test. Data are representative of at least three independent experiments.
Serum was analyzed by bead-based multiplex assay for 32 different cytokines, chemokines, and growth factors (Eve Technologies, Calgary, Alberta, Canada) including granulocyte-colony stimulating factor (G-CSF), granulocyte macrophage-colony stimulating factor (GM-CSF), interferon-gamma (IFN-γ), interleukin (IL)-1α, IL-1β, IL-2, IL-3, IL-4, IL-5, IL-6, IL-7, IL-9, IL-10, IL-12 (p40), IL-12 (p70), IL-13, IL-15, IL-17A, IP-10, keratinocyte chemo-attractant (KC), leukemia inhibitory factor (LIF), lipopolysaccharide-induced CXC chemokine (LIX), monocyte chemotactic protein (MCP)-1, monocyte-colony stimulating factor (M-CSF), monokine induced by gamma interferon (MIG), macrophage inflammatory protein (MIP)-1α, MIP-1β, MIP-2, Regulated on Activation, Normal T cell Expressed and Secreted (RANTES), tumour necrosis factor (TNF)-α, and vascular endothelial growth factor (VEGF). Multiplex data was visualized using a cytokine heat map that was generated using Matrix2png (33).

[3] = KRN7000 compared to OCH-treated group

SMILES: CCCCCCCCCCCCCCCCCCCCCCCCCC(=O)N[C@@H](CO[C@H]1O[C@H](CO)[C@H](O)[C@H](O)[C@H]1O)[C@H](O)[C@H](O)CCCCCCCCCCCCCC [KRN7000, reference compound]
- detection of iNKT cells versus OCH treatment (iNKT cells): significantly lower
- detection of iNKT cells versus vehicle (iNKT cells): significantly reduced
- response to auditory and touch stimuli [1]: non-responsive
- median survival [1]: 22 h
- mortality ([1]; by 24 hours): 100%
- time to respiratory distress (laboured breathing and reduced respiratory rates) ([1]; most mice, post-sepsis): ≤ 15 h
- murine sepsis score (MSS) after 24 h [1]: no statistical differences
- microbial load (bacterial counts in blood and multiple organs) [2]: similar
- spleen IFN-γ (inflammatory cytokines; [3]): significantly elevated
- spleen IL-3 (inflammatory cytokines; [3]): significantly elevated
- spleen IL-4 (inflammatory cytokines; [3]): significantly elevated
- spleen IL-17 (inflammatory cytokines; [3]): significantly elevated
- spleen TNF-α (inflammatory cytokines; [3]): significantly elevated

SMILES: CCCCCCCCCCCCCCCCCCCCCCCC(=O)N[C@@H](COC1OC(CO)C(O)C(O)C1O)[C@H](O)[C@H](O)CCCCC (some centres unmarked) [OCH]
- detection of iNKT cells versus vehicle (iNKT cells): significantly reduced
- response to auditory and touch stimuli [1]: more responsive
- survival time ([1]; 4 μg i.p.): > 24 h
- median survival [1]: 28 h
- respiratory status ([1]; observed up to 24 hours): relatively normal respiratory rates
- course of MSS over time ([1]; up to 24 hours): reached a plateau
- murine sepsis score (MSS) after 24 h [1]: significantly lower
- microbial load (bacterial counts in blood and multiple organs) [2]: did not worsen
- serum mean concentration of IL-17 (inflammatory cytokines; OCH compared to KRN7000-treated): significantly lower
- serum concentration of IL-13 (inflammatory cytokines; compared to KRN7000-treated and vehicle-treated): higher
